{"source": "the Kinase Knowledgebase extract (Sharma et al. 2016)", "key": {"EGFR": {"biological_target": "EGFR (UniProt P00533)", "sequence (P00533 whole entry, looked up)": "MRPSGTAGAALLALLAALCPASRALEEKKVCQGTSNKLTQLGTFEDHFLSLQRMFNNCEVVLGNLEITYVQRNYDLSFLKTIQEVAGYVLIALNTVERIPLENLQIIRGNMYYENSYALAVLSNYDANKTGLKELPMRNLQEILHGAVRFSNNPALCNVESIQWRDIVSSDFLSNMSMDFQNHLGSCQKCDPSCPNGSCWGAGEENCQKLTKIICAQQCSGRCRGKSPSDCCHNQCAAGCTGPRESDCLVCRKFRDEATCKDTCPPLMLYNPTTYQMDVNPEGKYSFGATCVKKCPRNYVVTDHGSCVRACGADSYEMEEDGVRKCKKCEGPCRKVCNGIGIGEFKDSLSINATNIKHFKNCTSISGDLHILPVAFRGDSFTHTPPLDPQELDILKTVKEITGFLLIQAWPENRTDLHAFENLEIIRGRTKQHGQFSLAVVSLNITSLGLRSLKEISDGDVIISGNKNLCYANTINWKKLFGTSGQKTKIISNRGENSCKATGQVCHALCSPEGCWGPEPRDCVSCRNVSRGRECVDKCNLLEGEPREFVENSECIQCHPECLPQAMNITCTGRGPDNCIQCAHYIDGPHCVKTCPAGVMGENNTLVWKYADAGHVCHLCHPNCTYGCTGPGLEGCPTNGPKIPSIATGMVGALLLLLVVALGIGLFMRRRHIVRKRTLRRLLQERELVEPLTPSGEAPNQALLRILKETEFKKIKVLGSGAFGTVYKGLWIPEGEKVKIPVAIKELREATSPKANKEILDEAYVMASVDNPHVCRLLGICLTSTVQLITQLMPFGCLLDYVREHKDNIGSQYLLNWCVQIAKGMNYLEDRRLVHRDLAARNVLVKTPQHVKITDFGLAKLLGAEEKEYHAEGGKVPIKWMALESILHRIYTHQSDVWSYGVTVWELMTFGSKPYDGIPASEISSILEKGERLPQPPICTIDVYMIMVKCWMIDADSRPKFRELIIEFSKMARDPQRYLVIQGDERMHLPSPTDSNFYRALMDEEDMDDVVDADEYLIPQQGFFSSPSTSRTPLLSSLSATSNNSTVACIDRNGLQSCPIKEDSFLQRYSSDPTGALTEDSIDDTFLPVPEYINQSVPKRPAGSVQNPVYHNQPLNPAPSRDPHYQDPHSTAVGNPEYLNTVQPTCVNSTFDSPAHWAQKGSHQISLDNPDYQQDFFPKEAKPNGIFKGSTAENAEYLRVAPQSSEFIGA"}, "EGFR (mouse)": {"biological_target": "EGFR (mouse) (UniProt P00533)", "details": "mk"}}, "data": [{"smiles": "C[C@]12CC[C@@H](CO1)c1c(cc3c(c1O)C(=O)c1c(O)cc(O)cc1C3=O)O2", "values": [{"measurement": "IC50", "setting": "EGFR", "result": 38, "unit": "µM"}, {"measurement": "IC50", "setting": "EGFR (mouse)", "result": 18, "unit": "µM"}]}, {"smiles": "O=C1c2cc(O)cc(O)c2C(=O)c2c1cc(O)c(C(CO)CCO)c2O", "note": "(centres undefined)", "values": [{"measurement": "IC50", "setting": "EGFR", "result": 21, "unit": "µM"}, {"measurement": "IC50", "setting": "EGFR (mouse)", "result": 22, "unit": "µM"}]}, {"smiles": "O=C1c2cc(O)cc(O)c2C(=O)c2c1cc(O)c(CO)c2O", "values": [{"measurement": "IC50", "setting": "EGFR", "result": 6.7, "unit": "µM"}, {"measurement": "IC50", "setting": "EGFR (mouse)", "result": 10, "unit": "µM"}]}, {"smiles": "O=C1c2cc(O)cc(O)c2C(=O)c2c1cc(O)c(C(CCO)C(=O)O)c2O", "note": "(centres undefined)", "values": [{"measurement": "IC50", "setting": "EGFR", "result": 10.5, "unit": "µM"}, {"measurement": "IC50", "setting": "EGFR (mouse)", "result": 16, "unit": "µM"}]}, {"smiles": "COC(=O)C(CCC(C)=O)c1c(O)cc2c(c1O)C(=O)c1c(O)cc(O)cc1C2=O", "note": "(centres undefined)", "values": [{"measurement": "IC50", "setting": "EGFR", "result": 17, "unit": "µM"}, {"measurement": "IC50", "setting": "EGFR (mouse)", "result": 28, "unit": "µM"}]}, {"smiles": "CC(=O)CCC(C(=O)O)c1c(O)cc2c(c1O)C(=O)c1c(O)cc(O)cc1C2=O", "note": "(centres undefined)", "values": [{"measurement": "IC50", "setting": "EGFR", "result": 21, "unit": "µM"}, {"measurement": "IC50", "setting": "EGFR (mouse)", "result": "> 50", "unit": "µM"}]}, {"smiles": "O=C1c2cc(O)cc(O)c2C(=O)c2c1cc(O)c(C1CCOC1=O)c2O", "note": "(centres undefined)", "values": [{"measurement": "IC50", "setting": "EGFR", "result": 11, "unit": "µM"}, {"measurement": "IC50", "setting": "EGFR (mouse)", "result": 35, "unit": "µM"}]}]}
